Measured values published in PMC10876669, “Substrate promiscuity of inositol 1,4,5-trisphosphate kinase driven by structurally-modified ligands and active site plasticity” (Nature Communications, 2024).
“And” between values parts separate entries of the source, which are not always exact repeats. Identical values can stand only once. “Also recorded” adds a separate entry of the source.

Key:
[1] = target: T1, IP3K-KD (human IP3K-KD A isoform, residues 187–461) (Homo sapiens, UniProt P23677); assay: Fluorescence thermal shift analysis (Tycho NT.6, inflection temperature Ti); type: binding; conditions: for Ti, transition 1 (mean inflection temperature) / Ti, transition 2 (mean inflection temperature): 10 μM IP3K-KD, 100 μM chiral or 200 μM racemic ligand, AMP-PNP or ADP, 100 μM MgCl2; for Ti, transition 1 (mean inflection temperature) / Ti, transition 2 (mean inflection temperature) / ΔTi, transition 1 / ΔTi, transition 2: mean ± SD, n=3; for ΔTi, transition 1: Ti minus Ti of apo IP3K-KD (44.4); for ΔTi, transition 2: Ti minus Ti of apo IP3K-KD (53.8); for Transition 1 Ti, individual measurement / Transition 2 Ti, individual measurement: source data of Fig. 6b/6c, single replicates; for Transition 1 Dti (Ti-Ti Apo) / Transition 1 Ti Mean / Transition 2 DTi (Ti-Ti Apo) / Transition 2 Ti Mean: source data of Fig. 6c, N 3
T1 construct: human IP3K-KD A isoform (residues 187–461); GST (cleaved yes); made in house; host or cells: Escherichia coli BL21 star (DE3)
T1 sequence (P23677 187-461): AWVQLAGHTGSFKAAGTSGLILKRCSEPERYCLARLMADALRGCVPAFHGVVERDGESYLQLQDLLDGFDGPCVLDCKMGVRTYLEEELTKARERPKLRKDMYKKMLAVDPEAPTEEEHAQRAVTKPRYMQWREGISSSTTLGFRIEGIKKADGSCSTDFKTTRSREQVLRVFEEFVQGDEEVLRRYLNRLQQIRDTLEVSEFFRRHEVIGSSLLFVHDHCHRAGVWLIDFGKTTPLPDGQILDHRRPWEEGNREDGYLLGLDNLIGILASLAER
Description: (§1) A construct encoding human IP3K-KD A isoform (residues 187–461) into pOPTG vector was used[16]. The protein was expressed in Escherichia coli BL21 star (DE3) strain. Cells were grown at 37 °C to OD600 = 1.0 then induced with 0.4 mM IPTG for 18 h at 16 °C. Protein purification was performed by adapting the reported protocol. Cells were resuspended in buffer A (10 mM Tris pH 7.5 [4 °C], 200 mM NaCl and 2 mM DTT) and disrupted by sonication. Clarified cell lysate was diluted 1/4 in buffer B (10 mM Tris pH 7.5 [4 °C] and 2 mM DTT) and loaded into a 5 mL HiTrap heparin column (GE Healthcare) washed by buffer C (20 mM Tris pH 7.5, 50 mM NaCl and 2 mM DTT), and eluted with a 0.05 M–1 M salt gradient. The eluted sample was subsequently loaded on to a 5 mL glutathione–Sepharose HP column (GE Healthcare), washed with buffer A and eluted with reduced glutathione 10 mM (Sigma-Aldrich) in buffer A. The GST tag was cleaved with home-made TEV (tobacco etch virus) protease overnight at 4 °C, (1:40 TEV/protein mass ratio). After glutathione removal with a PD10 column, the cleaved protein was further purified using a 5 mL glutathione–Sepharose HP column (GE Healthcare) followed by gel filtration on a 16/600 Superdex200 (GE Healthcare) column equilibrated in buffer D (20 mM Tris pH 7.5 [4 °C], 0.05 M (NH4)2SO4 and 2 mM DTT). Protein samples were analyzed by SDS/PAGE, concentrated around 18 mg/mL and stored at −80 °C until use.
Thermal protein denaturation was documented by recording intrinsic protein fluorescence at 330 and 350 nm wavelengths. The fluorescence recorded in each thermal run is plotted as 350/330 nm ratio and used to calculate the Inflection Temperature (Ti). Ti is the temperature at which a protein undergoes a transition in its folding state. This calculation is performed automatically by the Tycho NT.6 software. The protocol optimized for this procedure, involves a heating time of 2 min, a sample volume of 10 μl placed in a very thin capillary, and a temperature ramp from 35 °C (308 K) to 95 °C (368 K). For the experiment, IP3K-KD was diluted with buffer D to achieve a concentration of 0.31 mg/mL (10 μM). It was then mixed with 100 μM of chiral ligands or 200 μM of racemic ligands (all synthesized as stated in this work except InsP3 and InsP4 that were commercial from Avanti Polar Lipids), AMP-PNP (substrate analogues) or ADP (product-like ligands) and 100 μM MgCl2. Microsoft Excel was used to calculate and plot ΔTi values and standard deviations.

[2] = target: T1, IP3K-KD (human IP3K-KD A isoform, residues 187–461); assay: Ligand displacement assay: fluorescence polarization (anisotropy) of 2-FITC-InsP3/IP3K-KD complex; type: binding; conditions: for IC50: 100 nM IP3K-KD, 2 nM 2-FITC-InsP3, 20 mM HEPES pH 7.5, 1 mM EDTA, 50 mM KCl, n=4 replicates, 5-s and 5-p racemic, read-out: IC50, displacement of 2-FITC-InsP3 from IP3K-KD; for Kd: estimated Ki (Kd) from IC50 with [2-FITC-InsP3] 2 nM and its Kd 68 nM, read-out: Kd inferred from IC50 (Cheng and Prusoff)
Description: as §1
Binding of a competing/displacing ligand to protein is observed as a decrease in the polarization (anisotropy) of 2-FITC-InsP3. A comparison of the strength of binding of enzyme substrates, analogues and products to IP3K-KD was obtained by measurement of fluorescence polarization (here anisotropy) of 2-FITC-InsP3/IP3K-KD complex. Experimentally, 100 nM IP3K-KD was mixed with 2 nM 2-FITC-InsP3[37] in 20 mM HEPES pH 7.5, 1 mM EDTA and 50 mM KCl with the addition of displacing compounds over a range of 1 nM–50 μM. Assays were analyzed using a ClarioSTAR plate reader and IC50 values determined from fit of the data to a 4-parameter logistic as described. From IC50 values, we have estimated the Ki (Kd) values for the displacing ligands using the equation of Cheng and Prusoff:[69]1 Ki=IC50/1+L/Kd where [L] is the ligand (2-FITC-InsP3) concentration and Kd the dissociation constant for its interaction with IP3K-KD. […] Consequently, the Ki values for the displacing ligands differ trivially from their IC50 values.

[3] = target: T2, IP3K-KD (Homo sapiens, UniProt P23677); assay: HPLC analysis of IP3K-KD reaction mixtures (substrate test); type: biochemical; conditions: 150 nM IP3K-KD, 500 μM analogue, 1 mM ATP, 2 h at 30 °C, Fig. 7a
T2 construct: human IP3K-KD A isoform (residues 187–461); GST (cleaved yes); made in house; host or cells: Escherichia coli BL21 star (DE3)
T2 sequence (P23677 187-461): as above
Description: as §1

For `O=P(O)(O)O[C@H]1[C@H](O)[C@@H](OP(=O)(O)O)[C@H](OP(=O)(O)O)[C@@H](OP(=O)(O)O)[C@H]1O` [InsP4, D-myo-inositol 1,3,4,5-tetrakisphosphate, reference compound], the “Ti, transition 1 (mean inflection temperature)” value [1] was 53.5 ± 0.2 ºC, the “Ti, transition 2 (mean inflection temperature)” value [1] was 58.8 ± 0.2 ºC and the “ΔTi, transition 1” value [1] was 9.1 ± 0.4 ºC. For the same compound, the “ΔTi, transition 2” value [1] was 5.0 ± 0.3 ºC, the “Transition 1 Ti, individual measurement” value [1] was 53.7 and 53.3 and 53.5 and the “Transition 2 Ti, individual measurement” value [1] was 59.0 and 58.6 and 58.7. For the same compound, the “Transition 1 Dti (Ti-Ti Apo)” value [1] was 9.1, the “Transition 1 Ti Mean” value [1] was 53.5 and the “Transition 2 DTi (Ti-Ti Apo)” value [1] was 5.0. The “Transition 2 Ti Mean” value [1] was 58.8, the IC50 [2] was 0.06 µM and the Kd [2] was 0.058 µM.
With `O=P(O)(O)OC[C@H]1O[C@H](CO)[C@@H](OP(=O)(O)O)[C@H](OP(=O)(O)O)[C@H]1O` [7b–s, α-D-glucopyranosylmethanol 3,4,1’- trisphosphate] the “Ti, transition 1 (mean inflection temperature)” value [1] was 45.6 ± 0.7 ºC, the “Ti, transition 2 (mean inflection temperature)” value [1] was 54.4 ± 0.3 ºC and the “Binding to IP3K (in words)” value ([1]; Fig. 6b,c) was “do not, or barely, bind IP3K”. The “ΔTi, transition 1” value [1] was 1.2 ± 0.7 ºC, the “ΔTi, transition 2” value [1] was 0.6 ± 0.3 ºC and the “Transition 1 Ti, individual measurement” value [1] was 45.4 and 45.1 and 46.4. The “Transition 2 Ti, individual measurement” value [1] was 54.1 and 54.6 and 54.4, the “Transition 1 Dti (Ti-Ti Apo)” value [1] was 1.2 and the “Transition 1 Ti Mean” value [1] was 45.6. The “Transition 2 DTi (Ti-Ti Apo)” value [1] was 0.567, the “Transition 2 Ti Mean” value [1] was 54.4 and the “Stabilization of IP3K-KD by ligand (in words)” value ([1]; thermal shift, Fig. 6c) was “stabilize IP3K-KD much less than InsP3”. The IC50 [2] was 6.99 µM, the Kd [2] was 6.79 µM and the “Ability to act as IP3K substrate (in words)” value (“Ability to act” below) [3] was “weaker substrates; also recorded: poor substrate activity for IP3K”.
In the case of `O=P(O)(O)O[C@@H]1[C@H](O)[C@H](O)[C@@H](OP(=O)(O)O)[C@H](OP(=O)(O)O)[C@H]1O` [InsP3, D-myo-inositol 1,4,5-trisphosphate, reference compound], the “Ti, transition 1 (mean inflection temperature)” value [1] is reported as 52.9 ± 0.2 ºC, the “Ti, transition 2 (mean inflection temperature)” value [1] is reported as 58.2 ± 0.2 ºC and the “ΔTi, transition 1” value [1] is reported as 8.5 ± 0.3 ºC. For the same compound, the “ΔTi, transition 2” value [1] was 4.4 ± 0.2 ºC, the “Transition 1 Ti, individual measurement” value [1] was 52.8 and 52.9 and 53.1 and the “Transition 2 Ti, individual measurement” value [1] was 58.1 (2×) and 58.4. For the same compound, the “Transition 1 Dti (Ti-Ti Apo)” value [1] was 8.5, the “Transition 1 Ti Mean” value [1] was 52.9 and the “Transition 2 DTi (Ti-Ti Apo)” value [1] was 4.4. For the same compound, the “Transition 2 Ti Mean” value [1] was 58.2, the IC50 [2] was 0.14 µM and 0.139 µM and the Kd [2] was 0.136 µM.
With `O=P(O)(O)O[C@@H]1[C@@H](O)[C@H](O)[C@@H](OP(=O)(O)O)[C@H](OP(=O)(O)O)[C@H]1O` [1-s, L-scyllo-inositol 1,2,4-trisphosphate] the “Ti, transition 1 (mean inflection temperature)” value [1] was 55.6 ± 0.1 ºC, the “Ti, transition 2 (mean inflection temperature)” value [1] was 60.7 ± 0.2 ºC and the “ΔTi, transition 1” value [1] was 11.2 ± 0.3 ºC. The “ΔTi, transition 2” value [1] was 6.9 ± 0.2 ºC, the “Transition 1 Ti, individual measurement” value [1] was 55.7 and 55.6 (2×) and the “Transition 2 Ti, individual measurement” value [1] was 60.8 and 60.5 and 60.7. For the same compound, the “Transition 1 Dti (Ti-Ti Apo)” value [1] was 11.2, the “Transition 1 Ti Mean” value [1] was 55.6 and the “Transition 2 DTi (Ti-Ti Apo)” value [1] was 6.9. The “Transition 2 Ti Mean” value [1] was 60.7, the IC50 [2] was 0.036 µM and the Kd [2] was 0.035 µM. For the same compound, the “Ability to act” value [3] was “is a good IP3K substrate”.
`O=P(O)(O)OC[C@@H]1O[C@H](CO)[C@@H](OP(=O)(O)O)[C@H](OP(=O)(O)O)[C@H]1O` [7a–s, β-D-glucopyranosylmethanol 3,4,1’-trisphosphate] was tested, and the “Ti, transition 1 (mean inflection temperature)” value [1] was 49.7 ± 0.4 ºC, the “Ti, transition 2 (mean inflection temperature)” value [1] was 56.1 ± 0.3 ºC and the “ΔTi, transition 1” value [1] was 5.3 ± 0.5 ºC. For the same compound, the “ΔTi, transition 2” value [1] was 2.3 ± 0.3 ºC, the “Transition 1 Ti, individual measurement” value [1] was 50.2 and 49.5 and 49.4 and the “Transition 2 Ti, individual measurement” value [1] was 55.9 and 56.1 and 56.4. The “Transition 1 Dti (Ti-Ti Apo)” value [1] was 5.3, the “Transition 1 Ti Mean” value [1] was 49.7 and the “Transition 2 DTi (Ti-Ti Apo)” value [1] was 2.3. The “Transition 2 Ti Mean” value [1] was 56.1, the IC50 [2] was 0.656 µM and the Kd [2] was 0.637 µM. The “Ability to act” value [3] was “are also substrates”.
In the case of `O=P(O)(O)O[C@@H]1[C@@H](O)[C@H](OP(=O)(O)O)C[C@@H](O)[C@H]1OP(=O)(O)O` [3-s, D-3-deoxy-myo-inositol 1,4,6-trisphosphate], the “Ti, transition 1 (mean inflection temperature)” value [1] is reported as 52.0 ± 0.2 ºC, the “Ti, transition 2 (mean inflection temperature)” value [1] is reported as 57.4 ± 0.1 ºC and the “ΔTi, transition 1” value [1] is reported as 7.6 ± 0.3 ºC. For the same compound, the “ΔTi, transition 2” value [1] was 3.6 ± 0.2 ºC, the “Transition 1 Ti, individual measurement” value [1] was 52.1 and 51.8 and 52.0 and the “Transition 2 Ti, individual measurement” value [1] was 57.4 (2×) and 57.5. For the same compound, the “Transition 1 Dti (Ti-Ti Apo)” value [1] was 7.6, the “Transition 1 Ti Mean” value [1] was 52.0 and the “Transition 2 DTi (Ti-Ti Apo)” value [1] was 3.6. For the same compound, the “Transition 2 Ti Mean” value [1] was 57.4.
`O=P(O)(O)O[C@@H]1[C@@H](O)[C@H](OP(=O)(O)O)[C@@H](OP(=O)(O)O)[C@H](OP(=O)(O)O)[C@H]1O` [1-p, scyllo-inositol 1,2,3,5-tetrakisphosphate] was tested, and the “Ti, transition 1 (mean inflection temperature)” value [1] was 54.7 ± 0.2 ºC, the “Ti, transition 2 (mean inflection temperature)” value [1] was 59.9 ± 0.2 ºC and the “ΔTi, transition 1” value [1] was 10.3 ± 0.3 ºC. The “ΔTi, transition 2” value [1] was 6.1 ± 0.2 ºC, the “Transition 1 Ti, individual measurement” value [1] was 54.7 and 54.9 and 54.6 and the “Transition 2 Ti, individual measurement” value [1] was 59.7 and 60.0 and 59.9. The “Transition 1 Dti (Ti-Ti Apo)” value [1] was 10.3, the “Transition 1 Ti Mean” value [1] was 54.7 and the “Transition 2 DTi (Ti-Ti Apo)” value [1] was 6.1. For the same compound, the “Transition 2 Ti Mean” value [1] was 59.9, the IC50 [2] was 0.051 µM and the Kd [2] was 0.05 µM.
